Read-outs that look alike come from different tables or passages of the source.
Columns and labels:
parasites = settings: vs N-dimethyl substituted homolog; Miskus et al 1968; cited from earlier work
Macrosiphum Euphorbiae = assay: Biological activity on Macrosiphum euphorbiae (aphides), potato seedlings sprayed with aqueous dispersion; assay type: in vivo
Experimental: Biological Activity on Macrosiphum Euphorbiae (Aphides)
Potato seedlings, cultivated in pots, were infested with adult aphide females and, after a few hours, were sprayed with an aqueous dispersion of the compounds listed in Table 6. The mortality percentage was determined 24 hours after the treatment (on control non-treated seedlings, the mortality percentage was 0).
(§1) To show the variation in activity from one compound to another, depending on the species used, the activities of compounds according to this invention were investigated at different concentrations, expressed as percent of active principle, on various infesting species. The mortality percentage was computed in the same way as in the preceding examples.

Culex Pipiens [1] = assay: Biological activity on Culex pipiens (mosquito larvae in aqueous dispersion); assay type: in vivo
Source text: Biological Activity on Culex Pipiens (Diptera)
Mosquito larvae of the third and fourth ages were introduced into glass pots containing an aqueous dispersion of the compounds shown at 2 ppm and 0.2 ppm.
as §1

Musca Domestica = assay: Biological activity on Musca domestica, topical application to adults; assay type: in vivo; settings: read-out: Percent of Mortality
Experimental: Biological Activity on Musca Domestica (Diptera)
Four day old adults were treated by topical application through a microsyringe with 1 mm^3 of an acetonic solution of the compounds shown in such concentrations that they received doses of 5γ/insect; 2γ/insect; 0.5γ/insect of active principle. The mortality percentage 24 hours after the treatment is reported in Table 8 (mortality of insects treated with 1 mm^3 of acetone = 0).

[2] = tested on: Leptinotarsa Decimlineata; assay: Biological activity on Leptinotarsa decemlineata larvae, sprayed potato seedlings; assay type: in vivo
Source text: Biological Activity on Leptinotarsa Decimlineata Coleoptera
Potato seedlings cultivated in pots were infested with 4-day old larvae and sprayed with an aqueous dispersion of the compounds according to this invention and Aminocarb as a comparison at doses of […]; respectively. The mortality percentage of the control, untreated seedlings, was zero.
as §1

Tetranychus Urticae = assay: Biological activity on Tetranychus urticae eggs, bean leaf discs; assay type: in vivo
Source text: Biological Activity on Tetranychus Urticae (Acari)
Small discs of bean leaves were infested with acarus eggs and successively treated by spraying with an aqueous dispersion of a compound of this invention and Aminocarb as a comparison, at concentrations of 0.1 and 0.01%. The mortality percentage of the control, untreated discs, was zero.
as §1

Meloidogyne Incognita = assay: Biological activity on Meloidogyne incognita (nematocide activity, galls on tomato seedlings); assay type: in vivo; settings: vs control
Experimental: Biological Activity on Meloidogyne Incognita (Nematoda)
A 1:1 mixture of field earth and sand infested by new-born larvae and eggs of the nematode was treated by uniformly mixing with a hydroacetone dispersion (20% by vol. of acetone) at a concentration of 0.1% and of 0.02% of the compounds under test so as to get soil samples containing 100 ppm and 20 ppm, respectively, of active principle. The soil was introduced into plastic pots and after 5 days, 5 tomato seedlings about 15 cm high were transplanted into each of them. Fourteen days after transplantation, the roots of the seedlings extracted from the soil were examined in order to determine the degree of infestation by counting the galls which had formed.
The nematocide activity is expressed in Table 13 as the percentage of infestation reduction with respect to the control (seedlings transplanted into the same soil treated with a dispersion free from active principle).

[3] = tested on: Leptinotarsa Decimlineata; assay: Biological activity on Leptinotarsa decemlineata larvae, sprayed potato seedlings; assay type: in vivo; settings: read-out: Percent of Mortality
[4] = Acute toxicity on white rats, administered orally; settings: rat, in vivo, po
Pieris Brassicae = assay: Biological activity on Pieris brassicae larvae, sprayed cut cauliflower leaves; assay type: in vivo
Source text: Biological Activity on Pieris Brassicae (Lepidoptera)
Cut leaves of cauliflower were sprayed with an aqueous dispersion of compound according to this invention at a 0.1% concentration. After drying, they were infested with 5-day old larvae. The mortality percentage of the control, untreated leaves, was zero.
as §1

Tetran Urt. adults = assay: Activity on Tetranychus urticae adults (Table 14); assay type: in vivo; settings: 1% a.p., read-out: % mort. Tetran. Urt. adults
Source text: as §1

Culex Pipiens [5] = assay: Biological activity on Culex pipiens (mosquito larvae in aqueous dispersion); assay type: in vivo; settings: read-out: % mort. Culex Pipiens
[6] = 24 h, read-out: Percent of Mortality
[7] = read-out: % mort. Macrosiphum Euphorbiae
[8] = read-out: % mort. Culex Pipiens
[9] = read-out: % mort. Leptinot. Decemlin.

Compound: CNC(=O)Oc1cc(C)c(NC)c(C)c1
- relative insecticidal activity (parasites): only a bit less active than the N-dimethyl substituted homolog

Compound: CNC(=O)Oc1ccc(N(C)C)c(C)c1 [Aminocarb, reference compound]
- mortality at 0.01 % (Macrosiphum Euphorbiae; 0.01 percent dispersion, 24 hours, read-out: Mortality Percent): 46%
- mortality at 0.2 ppm (Culex Pipiens [1]; 0.2 ppm, 24 hours, read-out: Percent of Mortality): 0%
- mortality at 2 ppm (Culex Pipiens [1]; 2 ppm, 24 hours, read-out: Percent of Mortality): 25%
- mortality at 0.5 µg/insect (Musca Domestica; 0.5 γ per insect, 24 hours): 0%
- mortality at 2 µg/insect (Musca Domestica; 2 γ per insect, 24 hours): 50%
- mortality at 5 µg/insect (Musca Domestica; 5 γ per insect, 24 hours): 85%
- mortality at 0.1 % ([2]; 0.1% concentr., larvae, read-out: Percent of Mortality): 100%
- mortality at 0.01 % (Tetranychus Urticae; foliar, 0.01%, eggs, read-out: Percent of Mortality): 0%
- mortality at 0.1 % (Tetranychus Urticae; foliar, 0.1%, eggs, read-out: Percent of Mortality): 40%
- Reduction of Infestation (Meloidogyne Incognita; 20 ppm in soil): 0%
- Reduction of Infestation (Meloidogyne Incognita; 100 ppm in soil): 95%
- mortality at 0.01 % ([3]; 0.01% concentr., larvae): 45%
- LD50 [4]: 30 mg/kg

Compound: CNC(=O)Oc1ccc(C)c(NCC=C(Cl)Cl)c1 [M 6430, N-methylcarbamate of 4-methyl-3-(3,3-dichloroallylamino)-phenol]
- mortality at 0.01 % (Macrosiphum Euphorbiae; 24 h, read-out: Mortality Percent): 84%
- mortality at 0.2 ppm (Culex Pipiens [1]; [6]): 80%
- mortality at 2 ppm (Culex Pipiens [1]; [6]): 100%
- mortality at 0.5 µg/insect (Musca Domestica; 24 h): 100%
- mortality at 2 µg/insect (Musca Domestica; 24 h): 100%
- mortality at 5 µg/insect (Musca Domestica; 24 h): 100%
- mortality at 0.1 % ([2]; read-out: Percent of Mortality): 100%
- mortality at 0.1 % (Pieris Brassicae; 0.1 percent, larvae, read-out: Percent of Mortality): 100%
- Reduction of Infestation (Meloidogyne Incognita; 20 ppm in soil): 88%
- Reduction of Infestation (Meloidogyne Incognita; 100 ppm in soil): 100%
- mortality at 0.01 % [3]: 100%
- LD50 [4]: 100 mg/kg

Compound: CNC(=O)Oc1cccc(NCC=C(Cl)Cl)c1 [M 7360]
- mortality at 0.01 % (Macrosiphum Euphorbiae; [7]): 42%
- mortality at 0.1 % (Macrosiphum Euphorbiae; [7]): 95%
- mortality at 1 % (Macrosiphum Euphorbiae; [7]): 100%
- mortality at 0.2 ppm (Culex Pipiens [1]; [8]): 37%
- mortality at 2 ppm (Culex Pipiens [1]; [8]): 100%
- mortality at 0.01 % [2, 9]: 0%
- mortality at 0.1 % [2, 9]: 100%
- mortality at 1 % [2, 9]: 100%
- mortality at 1 % (Pieris Brassicae; Table 14, 1% a.p., read-out: % mort. Pieris Brassicae): 45%
- mortality at 1 % (Tetranychus Urticae; topical, read-out: % mort. Tetran. Urt. eggs): 6%
- mortality at 1 % (Tetran Urt. adults): 23%
- mortality at 0.02 ppm (Culex Pipiens [5]): 0%
